# Data published in US11007274B2, “Compounds for medicinal applications” (Ausvir Therapeutics Pty LTD, priority 2015, dated 2021).
# pEC50: −log10 of the molar value. “And” between values parts separate entries of the source, which are not always exact repeats. Equal values may be shown once. Read-outs that look alike come from different tables or passages of the source.
# Columns and labels:
# CA/07/2009 = assay: microbe, parasite or virus in culture; assay type: cell-based
# Perth/16/2009 = assay: microbe, parasite or virus in culture; assay type: cell-based
# Florida/4/2006 = assay: microbe, parasite or virus in culture; assay type: cell-based
# Duck/MN/1525/81 = assay type: cell-based; conditions: Table 7
# [1] = test system: Influenza A virus H5N1, Hong Kong/213/2003; assay: microbe, parasite or virus in culture; assay type: cell-based
# [2] = test system: Influenza A virus H7N9, A/Anhui/1/2003; assay type: cell-based
# [3] = line Neutral Red (Cytopathic effect/Toxicity)
# [4] = test system: Influenza A virus H7N9, A/Anhui/1/2003; assay type: cell-based; remark: listed apart in the source
# [5] = test system: Influenza A virus H5N1, Hong Kong/213/2003; assay: microbe, parasite or virus in culture; assay type: cell-based; remark: listed apart in the source
# A/PR/8 virus H1N1 = assay: Viral Plaque Reduction Assay (Table 23); assay type: cell-based, influenza virus; conditions: Table 23, plaque reduction, read-out: EC50
# A/Victoria/170/2012 = assay: microbe, parasite or virus in culture; assay type: cell-based; conditions: unidentified influenza virus, read-out: EC50 A/Victoria/170/2012
# B/Townsville/2/2011 = assay: microbe, parasite or virus in culture; assay type: cell-based; conditions: unidentified influenza virus, read-out: EC50 B/Townsville/2/2011
# A/Perth/261/2009 = assay: microbe, parasite or virus in culture; assay type: cell-based; conditions: unidentified influenza virus, read-out: EC50 A/Perth/261/2009
# A/Victoria/503/06 = assay: microbe, parasite or virus in culture; assay type: cell-based; conditions: unidentified influenza virus, read-out: EC50 A/Victoria/503/06
# A/Townsville/74/2011 = assay: microbe, parasite or virus in culture; assay type: cell-based; conditions: unidentified influenza virus, read-out: EC50 A/Townsville/74/2011
# A/Solomon Island/3/06 = assay: microbe, parasite or virus in culture; assay type: cell-based; conditions: unidentified influenza virus, read-out: EC50 A/Solomon Island/3/06
# A/Mississippi/03/01H274Y = assay type: cell-based, influenza virus
# A/Sydney/5/97 = assay: microbe, parasite or virus in culture; assay type: cell-based; conditions: unidentified influenza virus, read-out: EC50 A/Sydney/5/97
# [6] = test system: Influenza A virus H5N1, Duck/MN/1525/81; assay: microbe, parasite or virus in culture; assay type: cell-based
# [7] = test system: Influenza B virus, B/Florida/4/2006; assay: microbe, parasite or virus in culture; assay type: cell-based; conditions: Table 19, […], B/Florida/4/2006, read-out: EC50
# [8] = test system: Influenza A virus H3N2, Perth/16/2009; assay: microbe, parasite or virus in culture; assay type: cell-based
# [9] = test system: Influenza A virus H3N2, Perth/16/2009; assay: microbe, parasite or virus in culture; assay type: cell-based; conditions: read-out: EC90
# [10] = test system: Influenza A virus H1N1, California/07/2009; assay: microbe, parasite or virus in culture; assay type: cell-based; conditions: read-out: EC90
# [11] = test system: Influenza B virus, B/Florida/4/2006; assay: microbe, parasite or virus in culture; assay type: cell-based
# [12] = test system: Influenza A virus H1N1, California/07/2009; assay: microbe, parasite or virus in culture; assay type: cell-based
# PR8 influenza virus = assay: Viral clearance rates in the lung and nasal turbinates, weight loss (Table 6); assay type: in vivo, mice
# CA/07/2009 virus H1N1 = assay: Viral Plaque Reduction Assay (Table 22); assay type: cell-based; conditions: Influenza A virus, Table 22, plaque reduction, read-out: EC50
smiles,measurement,setting,value
"CC(=O)N[C@H]1[C@H]([C@H](OC(=O)NCCCCCCNC(=O)c2cc(C(=O)O)c(C(=O)NCCCCCCNC(=O)O[C@@H]([C@@H]3OC(C(=O)O)=C[C@H](N=C(N)N)[C@H]3NC(C)=O)[C@H](O)CO)cc2C(=O)O)[C@H](O)CO)OC(C(=O)O)=C[C@@H]1N=C(N)N [MD015, PK1 PYR(Z)2]",pEC50,CA/07/2009; Table 7,8.22
same,EC50 CA/07/2009,"CA/07/2009; Table 7, MDCK cell line",0.007 µg/mL
same,pEC50,Perth/16/2009; Table 7,8.17
same,EC50 Perth/16/2009,Perth/16/2009; Table 7,0.0078 µg/mL
same,pEC50,Florida/4/2006; Table 7,8.68
same,EC50 Florida/4/2006,Florida/4/2006; Table 7,0.0025 µg/mL
same,pEC50,Duck/MN/1525/81,9.47
"CC(=O)N[C@H]1[C@H]([C@H](OC(=O)NCCCCCCNC(=O)c2cc(C(=O)NCCCCCCNC(=O)O[C@@H]([C@@H]3OC(C(=O)O)=C[C@H](N=C(N)N)[C@H]3NC(C)=O)[C@H](O)CO)c(C(=O)O)cc2C(=O)O)[C@H](O)CO)OC(C(=O)O)=C[C@@H]1N=C(N)N [MD016, PK2 PYR(Z)2]",pEC50,CA/07/2009,8.11
same,EC50 CA/07/2009,CA/07/2009,0.009 µg/mL
same,pEC50,Perth/16/2009,8.55
same,EC50 Perth/16/2009,Perth/16/2009,0.0033 µg/mL
same,pEC50,Florida/4/2006,8.15
same,EC50 Florida/4/2006,Florida/4/2006,0.0082 µg/mL
same,pEC50,Duck/MN/1525/81,9.29
"CC(=O)N[C@H]1[C@H]([C@H](OC(=O)NCCCCCCCCNC(=O)[C@@H]2C[C@H](C(=O)NCCCCCCCCNC(=O)O[C@@H]([C@@H]3OC(C(=O)O)=C[C@H](N=C(N)N)[C@H]3NC(C)=O)[C@H](O)CO)C[C@H](C(=O)N[C@@H](CC(=O)NCS(=O)(=O)O)C(=O)NCS(=O)(=O)O)C2)[C@H](O)CO)OC(C(=O)O)=C[C@@H]1N=C(N)N [MD154, CHTCA(Z0)2-L-Asp(NHCH2SO3H)2]",pEC50,CA/07/2009; Table 7,8.22
same,EC50 CA/07/2009,"CA/07/2009; Table 7, MDCK cell line",0.009 µg/mL
same,pEC50,Perth/16/2009; Table 7,> 10.06
same,EC50 Perth/16/2009,Perth/16/2009; Table 7,<0.00013 µg/mL
same,EC50,[1],<0.00032 µg/mL
same,pEC50,Florida/4/2006; Table 7,> 10.06
same,EC50 Florida/4/2006,Florida/4/2006; Table 7,<0.00013 µg/mL
same,EC90,[2],0.01 µg/mL
same,CC50,[3]; Table 9,>1.0 µg/mL
same,CC50,[3]; Table 10,>1.0 µg/mL
same,pEC50,Duck/MN/1525/81,> 10.06
same,EC50,[4],<0.00032 µg/mL
same,EC90,[5],<0.00032 µg/mL
"CC(=O)N[C@H]1[C@H]([C@H](OC(=O)NCCCCNC(=O)[C@@H]2C[C@H](C(=O)NCCCCNC(=O)O[C@@H]([C@@H]3OC(C(=O)O)=C[C@H](N=C(N)N)[C@H]3NC(C)=O)[C@H](O)CO)C[C@H](C(=O)N[C@@H](CC(=O)O)C(=O)O)C2)[C@H](O)CO)OC(C(=O)O)=C[C@@H]1N=C(N)N [MD206, CHTCA(Zb)2-L-Asp]",pEC50,CA/07/2009; Table 7,8.77
same,EC50 CA/07/2009,"CA/07/2009; Table 7, MDCK cell line",0.002 µg/mL
same,pEC50,Perth/16/2009; Table 7,8.21
same,EC50 Perth/16/2009,Perth/16/2009; Table 7,0.0073 µg/mL
same,EC50 Florida/4/2006,Florida/4/2006; Table 7,>10 µg/mL
same,EC50,"Florida/4/2006; Table 7, cells of the nM column printed in μM",> 8400 nM
same,pEC50,Duck/MN/1525/81,9.23
"CC(=O)N[C@H]1[C@H]([C@H](OC(=O)NCCCCNC(=O)c2cc(C(=O)NCCCCNC(=O)O[C@@H]([C@@H]3OC(C(=O)O)=C[C@H](N=C(N)N)[C@H]3NC(C)=O)[C@H](O)CO)c(C(=O)N[C@H](CC(=O)NCS(=O)(=O)O)C(=O)NCS(=O)(=O)O)cc2C(=O)N[C@H](CC(=O)NCS(=O)(=O)O)C(=O)NCS(=O)(=O)O)[C@H](O)CO)OC(C(=O)O)=C[C@@H]1N=C(N)N [MD219, PK2 PYR(Zb)2[(D-Asp)(NHCH2SO3H)2]2]",pEC50,CA/07/2009,8.53
same,EC50 CA/07/2009,CA/07/2009,0.005 µg/mL
same,pEC50,Perth/16/2009,< 5.24
same,EC50 Perth/16/2009,Perth/16/2009,>10 µg/mL
same,pEC50,Florida/4/2006,9.00
same,EC50 Florida/4/2006,Florida/4/2006,0.0017 µg/mL
same,pEC50,Duck/MN/1525/81,9.54
"CC(=O)N[C@H]1[C@H]([C@H](OC(=O)NCCCCCNC(=O)[C@@H]2C[C@H](C(=O)NCCCCCNC(=O)O[C@@H]([C@@H]3OC(C(=O)O)=C[C@H](N=C(N)N)[C@H]3NC(C)=O)[C@H](O)CO)C[C@H](C(=O)N[C@@H](CC(=O)O)C(=O)O)C2)[C@H](O)CO)OC(C(=O)O)=C[C@@H]1N=C(N)N [MD242, CHTCA(Zp)2-L-Asp]",pEC50,CA/07/2009; Table 7,8.18
same,EC50 CA/07/2009,"CA/07/2009; Table 7, MDCK cell line",0.008 µg/mL
same,pEC50,Perth/16/2009; Table 7,8.46
same,EC50 Perth/16/2009,Perth/16/2009; Table 7,0.0042 µg/mL
same,pEC50,Florida/4/2006; Table 7,9.24
same,EC50 Florida/4/2006,Florida/4/2006; Table 7,0.00071 µg/mL
same,pEC50,Duck/MN/1525/81,9.15
"CC(=O)N[C@H]1[C@H]([C@H](OC(=O)NCCCCCCCCNC(=O)CC(CC(=O)N[C@H](CS(=O)(=O)O)C(=O)N[C@H](CS(=O)(=O)O)C(=O)N[C@H](CS(=O)(=O)O)C(=O)O)C(=O)NCCCCCCCCNC(=O)O[C@@H]([C@@H]2OC(C(=O)O)=C[C@H](N=C(N)N)[C@H]2NC(C)=O)[C@H](O)CO)[C@H](O)CO)OC(C(=O)O)=C[C@@H]1N=C(N)N (stereo partly drawn) [MD343, PK2 TCA(Z0)2-[D-Cya]3-OH]",pEC50,A/PR/8 virus H1N1,8.90
"CC(=O)N[C@H]1C([C@H](OC(=O)NCCCCCCCCCNC(=O)[C@@H]2CC(C(=O)NCCCCCCNC(=O)O[C@H](C(O)CO)C3OC(C(=O)O)=C[C@H](NC(=N)N)[C@H]3NC(C)=O)C[C@H](C(=O)N[C@H](CC(=O)NC(CS(=O)(=O)O)C(=O)O)C(=O)N[C@H](CC(=O)NC(CS(=O)(=O)O)C(=O)O)C(=O)N[C@H](CC(=O)NC(CS(=O)(=O)O)C(=O)O)C(=O)O)C2)C(O)CO)OC(C(=O)O)=C[C@@H]1NC(=N)N (stereo partly drawn) [MD348, CHTCA(Z0)2-[D-Asp(D-Cyst)-D-Asp(D-Cyst)-D-Asp(D-Cyst)]-OH]",pEC50,A/Victoria/170/2012,9.08
same,pEC50,A/PR/8 virus H1N1; Influenza A virus,8.72
same,pEC50,B/Townsville/2/2011,9.55
same,pEC50,A/Perth/261/2009,9.46
same,pEC50,A/Victoria/503/06,8.35
same,pEC50,A/Townsville/74/2011,10.22
same,pEC50,A/Solomon Island/3/06,10.80
same,pEC50,A/Mississippi/03/01H274Y,9.57
same,pEC50,A/Sydney/5/97,8.90
"NC(=O)c1ncn([C@@H]2O[C@H](CO)[C@@H](O)[C@H]2O)n1 [Ribavirin, reference compound]",EC90,[6],2.3 µg/mL
same,EC50,[7],10 µg/mL
same,EC50,[8],5 µg/mL
same,EC90,[9],4.4 µg/mL
same,EC90,[10],2.3 µg/mL
same,CC50,"in vitro; CC50, Table 9, line Neutral Red (Cytopathic effect/Toxicity)",> 1000 µg/mL
same,CC50,"in vitro; CC50, Table 10, line Neutral Red (Cytopathic effect/Toxicity)",> 1000 µg/mL
same,CC50,"in vitro; CC50, Table 11, line Neutral Red (Cytopathic effect/Toxicity)",> 320 µg/mL
same,CC50,"in vitro; CC50, Table 12, line Neutral Red (Cytopathic effect/Toxicity)",> 320 µg/mL
same,CC50,"in vitro; CC50, Table 13, line Neutral Red (Cytopathic effect/Toxicity)",> 320 µg/mL
same,CC50,"in vitro; CC50, Table 14, line Neutral Red (Cytopathic effect/Toxicity)",> 320 µg/mL
same,CC50,"in vitro; CC50, Table 15, line Neutral Red (Cytopathic effect/Toxicity)",> 320 µg/mL
same,CC50,"in vitro; CC50, Table 16, line Neutral Red (Cytopathic effect/Toxicity)",> 320 µg/mL
same,CC50,"in vitro; CC50, Table 18, line Neutral Red (Cytopathic effect/Toxicity)",> 320 µg/mL
same,CC50,"in vitro; CC50, Table 19, Neutral Red (Cytopathic effect/Toxicity) rows",> 320 µg/mL
same,EC50,[11],9.5 µg/mL
same,EC50,[12],2.5 µg/mL
"CC(=O)N[C@H]1[C@H]([C@H](O)[C@H](O)CO)OC(C(=O)O)=C[C@@H]1N=C(N)N [Zanamivir, reference compound]","lung viral titre, Group mean titres",PR8 influenza virus; Day 1,2.60 log10
same,"lung viral titre, Group mean titres",PR8 influenza virus; Day 3,4.28 log10
same,"lung viral titre, Group mean titres",PR8 influenza virus; Day 5,4.85 log10
same,"lung viral titre, Group mean titres",PR8 influenza virus; Day 7,4.72 log10
same,weight loss compared with PBS,"PR8 influenza virus; days 3, 4 and 5, Bonferroni post-test p<0.001",significantly different from PBS
same,"lung viral titre, Individual titres","PR8 influenza virus; mouse, in vivo",4.44 log10 and 4.66 log10 and 4.97 log10 (2×) and 4.19 log10 and 3.16 log10 and 4.84 log10 and 3.00 log10 and 5.77 log10 and 5.66 log10
same,EC50,CA/07/2009 virus H1N1,0.00197 µg/mL and 5.93 nM
same,pEC50,A/PR/8 virus H1N1; Influenza A virus,4.99
same,pEC50,A/Mississippi/03/01H274Y,< 7.18
